Measurements as given in ChEMBL document CHEMBL5325494, “Glycogen synthase kinase-3: A potential target for diabetes” (Bioorg Med Chem, 2023).
Blank lines part the entries; values can stand above or below the compound they belong to.

Experiments:
[1] = biological target: T1, Glycogen synthase kinase-3 beta (Homo sapiens, UniProt P49841); assay: Inhibition of GSK-3beta (unknown origin)
[2] = biological target: T1, Glycogen synthase kinase-3 beta; assay: Binding affinity to full length GST-tagged human recombinant GSK-3beta (1 to 420 residues) expressed in Escherichia coli assessed as inhibition constant
PC-12 = assay: Neuroprotective activity against CORT-induced damage in rat PC-12 cells measured after 24 hrs by MTT assay; assay type: functional, cell-based; conditions: PC-12, 24 h
[3] = biological target: T1, Glycogen synthase kinase-3 beta; assay: Inhibition of human wildtype full length GSK-3beta
[4] = biological target: T1, Glycogen synthase kinase-3 beta; assay: Inhibition of human GSK-3beta
[5] = biological target: T1, Glycogen synthase kinase-3 beta; assay: Inhibition of full length GST-tagged human recombinant GSK-3beta (1 to 420 residues) expressed in Escherichia coli
[6] = biological target: T1, Glycogen synthase kinase-3 beta; assay: Inhibition of GSK-3beta (unknown origin) incubated for 1 hr by HTRF assay

T1 sequence (P49841 whole entry, the tested form may be a part): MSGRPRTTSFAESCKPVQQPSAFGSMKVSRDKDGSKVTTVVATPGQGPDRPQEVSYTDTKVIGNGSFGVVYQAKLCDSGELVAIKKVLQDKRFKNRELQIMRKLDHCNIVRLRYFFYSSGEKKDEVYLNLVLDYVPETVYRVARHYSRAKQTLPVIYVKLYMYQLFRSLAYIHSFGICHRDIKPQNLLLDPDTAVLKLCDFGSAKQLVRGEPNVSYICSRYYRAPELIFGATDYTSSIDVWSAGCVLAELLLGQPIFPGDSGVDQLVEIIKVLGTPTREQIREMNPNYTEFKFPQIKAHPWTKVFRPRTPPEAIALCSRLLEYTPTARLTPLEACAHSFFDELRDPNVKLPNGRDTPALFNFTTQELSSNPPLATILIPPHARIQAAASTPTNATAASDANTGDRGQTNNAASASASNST

- IC50 [1]: 0.06 nM
SMILES: Nc1nc(NCCNc2ncc(-c3ncc[nH]3)c(-c3ccc(Cl)cc3Cl)n2)ccc1[N+](=O)[O-]

- Ki [2]: 90 nM
SMILES: COCCNC(=O)c1nc(-c2ccc(S(=O)(=O)N3C=CN(C)CC3)cc2)cnc1N

SMILES: N#C[C@@H](CC1=NN2C(N)=NC(NC3CCCCC3)=NC2N1)C(N)=O (some centres undefined)
- EC50 (PC-12): 3 nM

- IC50 [3]: 54 nM
SMILES: COc1ccccc1-c1c2c(nc3[nH]nc(C)c13)CC(C)(C)CC2=O

- IC50 [1]: 8 nM
SMILES: CN1CCN(c2ccc(NCCNc3ccc([N+](=O)[O-])c(N)n3)nc2-c2ccc(Cl)cc2Cl)C(=O)C1

- IC50 [4]: 21 nM
SMILES: CC(/C=C1\SC(=S)N(CC(=O)O)C1=O)=C\c1ccccc1

- IC50 [5]: 10 nM
SMILES: Nc1ncc(-c2ccc(S(=O)(=O)N3C=COCC3)cc2)nc1C(=O)Nc1cccnc1

- IC50 [6]: 9 nM
SMILES: COCCN1CCC(CNC(=O)c2ncc3ccc(-c4cncc(OC(C)C)c4)cn23)CC1

- IC50 [1]: 36 nM
SMILES: O=C(O)C1=CN2C3C(=C(NCCNc4ccccn4)C(F)=CC3C1=O)OCCC21CCC1 (centres undefined)
